In patent publication US20110053897A1 (IRM LLC, priority 2009, published 2011):
Like-named read-outs stand apart in the source and are kept apart here.

Molecular target: T1, Syk kinase (Homo sapiens, UniProt P43405)
T1 construct: purchased
Assay: Syk kinase inhibition, Caliper LabChip off-chip mobility-shift kinase assay
Assay type: biochemical
Conditions: read-out: Syk Enzyme IC50
In short: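 Purified Syk pre-incubated 15 min with compound in 100 mM HEPES pH 7.5, 1 mM DTT, 10 mM MgCl2 or MnCl2, 0.002% Brij-35, then 1.5 μM fluorescein peptide and ATP at apparent KM added; 1–1.5 h at room temperature, 4% DMSO, EDTA stop. Microfluidic mobility-shift product/substrate conversion gave % inhibition; IC50 from 12-point series (10–0.00003 μM) by 4-parameter fit.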

Row | SMILES | IC50 [nM] | IC50 (Caliper LabChip assay) [nM]
1 | COCCCN1CCC(c2ccc(Nc3nc(-c4cncc(OC)n4)cc4cc[nH]c(=O)c34)cc2C)CC1 [compound 141] | 7 | –
2 | Cc1ccc(-c2cc3cc[nH]c(=O)c3c(Nc3ccc(C4CCN(CCCF)CC4)c(C)c3)n2)cn1 [compound 46] | 37 | –
3 | Cc1ccnc(Nc2cc3ccn(C)c(=O)c3c(N[C@@H](C)CO)n2)c1 [compound 323] | 37 | –
4 | Cn1ccc2cc(Nc3nccc(O)n3)nc(NC3CCC3)c2c1=O [compound 800] | – | 9
5 | CCNc1nc(Nc2cc(C)ccn2)cc2cc[nH]c(=O)c12 [compound 566] | 803 | –
6 | Cn1cc(Cl)c2cc(Nc3cnccn3)nc(N[C@H]3CC[C@@H](O)CC3)c2c1=O [compound 785] | – | 144
7 | CC(C)n1ccc2cc(Nc3cnccn3)nc(NC(C)(C)CO)c2c1=O [compound 820] | – | 84
8 | Cc1cc(Nc2nc(Nc3cc(C(=O)O)ccn3)cc3cc[nH]c(=O)c23)ccc1C1CCN(C2CC2)CC1 [compound 261] | 249 | –
9 | CNC(=O)c1ccc(Nc2nc(Nc3cnccn3)cc3ccn(C)c(=O)c23)cc1 [compound 343] | 333 | –
10 | CC(C)(C)Nc1nc(Nc2cnccn2)cc2ccn(C3CS(=O)(=O)C3)c(=O)c12 [compound 1015] | – | 138
11 | Cn1ccc2cc(Nc3cnccn3)nc(N[C@H]3CCC[C@H]3O)c2c1=O (racemic) [compound 328] | 39 | –
12 | [2H]C([2H])([2H])n1ccc2cc(Nc3cc(C)ccn3)nc(NC(C)(C)CO)c2c1=O [compound 1047] | – | 77.2
13 | CCN1CCN(CCc2ccc(Nc3nc(Nc4ccc(Cl)cn4)cc4cc[nH]c(=O)c34)cc2)CC1 [compound 536] | 398 | –
14 | CC(C)(C)Nc1nc(Nc2cc(C(O)C(F)(F)F)ccn2)cc2ccn(CC(N)=O)c(=O)c12 (stereo not drawn) [compound 613] | – | 142
15 | CCn1ccc2cc(Nc3cnccn3)nc(NC(C)C)c2c1=O [compound 307] | 60 | –
16 | CCn1ccc2cc(Nc3cc(C)ccn3)nc(N[C@H]3CC[C@@H](CO)C3)c2c1=O [compound 792] | – | 33
17 | CCn1ccc2cc(Nc3cc(C)ccn3)nc(NC3CCC(C)(O)CC3)c2c1=O (stereo not drawn) [compound 950] | – | 53
18 | Cn1ccc2cc(Nc3nccc(O)n3)nc(N[C@H]3CC[C@H](O)CC3)c2c1=O [compound 799] | – | 29
19 | Cc1ccnc(Nc2cc3ccn(C(C)C)c(=O)c3c(N[C@H]3CC[C@@H](O)C3)n2)c1 [compound 977] | – | 20
20 | COc1ccc(-c2cc3cc[nH]c(=O)c3c(Nc3ccc(C4CCN(C5CC5)CC4)c(C)c3)n2)cc1OC [compound 213] | 990 | –
21 | Cc1cc(Nc2nc(Nc3cc(C(F)(F)F)ccn3)cc3cc[nH]c(=O)c23)ccc1C1CCN(C2CC2)CC1 [compound 255] | 434 | –
22 | Cc1ccnc(Nc2cc3ccn(C(C)C)c(=O)c3c(N[C@H]3CC[C@@H](CO)C3)n2)c1 [compound 987] | – | 60
23 | CCOC(=O)c1ccc(Nc2cc3cc[nH]c(=O)c3c(Nc3ccc(N4CCOCC4)cc3)n2)nc1 [compound 578] | 186 | –
24 | Cc1ccnc(Nc2cc3cc[nH]c(=O)c3c(NCC(C)C)n2)c1 [compound 282] | 500 | –
25 | CCn1ccc2cc(Nc3cc(C)ccn3)nc(NC3CCCC(O)C3)c2c1=O (stereo not drawn) [compound 972] | – | 59

Row | SMILES | IC50 [nM] | IC50 (Caliper LabChip assay) [nM]
26 | CCC(C)Nc1nc(Nc2cc(C)ccn2)cc2cc[nH]c(=O)c12 (stereo not drawn) [compound 262] | 201 | –
27 | O=c1c2c(NCC(F)(F)F)nc(Nc3cnccn3)cc2ccn1CCO [compound 825] | – | 22
28 | CCn1ccc2cc(Nc3cc(C)ccn3)nc(N[C@@H]3CC[C@H](CO)C3)c2c1=O [compound 794] | – | 94
29 | COc1ncc(-c2cc3cc[nH]c(=O)c3c(Nc3ccc(CCN4CCNC(=O)C4)cc3)n2)cn1 [compound 151] | 201 | –
30 | COc1ncc(-c2cc3cc[nH]c(=O)c3c(Nc3ccc(CCN4CCCN(C)CC4)cc3)n2)cn1 [compound 436] | 140 | –
31 | COc1ccc(Nc2nc(Nc3cc(C)ccn3)cc3cc[nH]c(=O)c23)cc1OC [compound 371] | 233 | –
32 | Cc1nc(-c2ccnc(Nc3cc4ccn(CCO)c(=O)c4c(NC(C)(C)C)n3)c2)no1 [compound 873] | – | 27
33 | Cc1ccc(-c2cc3cc[nH]c(=O)c3c(Nc3ccc(C4CCN(C5CC5)CC4)c(C)c3)n2)cn1 [compound 219] | 89 | –
34 | CC(C)(C)CNc1nc(Nc2cnccn2)cc2ccn(CCO)c(=O)c12 [compound 898] | – | 20
35 | O=c1[nH]ccc2cc(Nc3ccccn3)nc(NC3CCOC3)c12 (stereo not drawn) [compound 287] | 148 | –
36 | Cn1ccc2cc(Nc3nccc(O)n3)nc(N[C@H]3CC[C@@H](O)CC3)c2c1=O [compound 798] | – | 128
37 | COCC(=O)N1CCC(c2ccc(Nc3nc(-c4cncc(OC)n4)cc4cc[nH]c(=O)c34)cc2C)CC1 [compound 49] | 75 | –
38 | Nc1ncc(-c2cc3cc[nH]c(=O)c3c(NC3CCC3)n2)cn1 [compound 453] | 162 | –
39 | O=c1c2c(N[C@H]3CC[C@H](O)CC3)nc(Nc3cnccn3)cc2ccn1CCO [compound 989] | – | 15
40 | CC(C)(C)Nc1nc(-c2cnc(N)nc2)cc2ccn(C(CO)CO)c(=O)c12 [compound 922] | – | 6
41 | CC(C)(C)Nc1nc(-c2cnc(N)nc2)cc2ccn(C(C)(C)C(N)=O)c(=O)c12 [compound 673] | – | 57
42 | CN1CCN(C2CCC(c3ccc(Nc4nc(-c5cncnc5)cc5cc[nH]c(=O)c45)cc3)CC2)CC1 (stereo not drawn) [compound 104] | 31 | –
43 | CCN1CCN(CCc2ccc(Nc3nc(-c4cnn(CC(C)C)c4)cc4c(F)c[nH]c(=O)c34)cc2)CC1 [compound 445] | 300 | –
44 | CC(C)(C)Nc1nc(-c2cnc(N)nc2)cc2ccn(CC(N)=O)c(=O)c12 [compound 663] | – | 43
45 | COc1ccc(Nc2cc3ccn(CCO)c(=O)c3c(NC(C)(C)C)n2)nc1 [Compound No. 606, 8-(tert-butylamino)-2-(2-hydroxyethyl)-6-(5-methoxypyridin-2-ylamino)-2,7-naphthyridin-1(2H)-one] | – | 793
46 | Cc1ccnc(Nc2cc3ccn(C)c(=O)c3c(NC3CC3)n2)c1 [compound 534] | 129 | –
47 | CC[C@@H](CO)Nc1nc(Nc2cc(C)ccn2)cc2ccn(CC)c(=O)c12 [compound 597] | – | 81
48 | C[C@@H]1CN([C@H]2CC[C@H](c3ccc(Nc4nc(-c5cncnc5)cc5cc[nH]c(=O)c45)cc3)CC2)CCO1 [compound 93] | 433 | –
49 | CCn1ccc2cc(Nc3cnccn3)nc(N[C@H](CO)C(C)(C)C)c2c1=O [compound 807] | – | 216
50 | CCCN1CCC(c2ccc(Nc3nc(-c4cncc(OC)n4)cc4cc[nH]c(=O)c34)cc2C)CC1 [compound 55] | 33 | –

Row | SMILES | IC50 [nM] | IC50 (Caliper LabChip assay) [nM]
51 | CC(C)(C)Nc1nc(Nc2cnccn2)cc2ccn(CCF)c(=O)c12 [compound 1001] | – | 49
52 | Cc1cc(Nc2cc3ccn(CCO)c(=O)c3c(NC(C)(C)CO)n2)ncc1Cl [compound 497] | 111 | –
53 | CC(=O)c1cc2cc[nH]c(=O)c2c(Nc2ccc(C3CCNCC3)c(C)c2)n1 [compound 232] | 242 | –
54 | O=c1[nH]ccc2cc(C3CCNCC3)nc(Nc3ccc(N4CCOCC4)cc3)c12 [compound 2] | 249 | –
55 | COCC1(C(=O)N2CCC(c3ccc(Nc4nc(-c5cncc(OC)n5)cc5cc[nH]c(=O)c45)cc3C)CC2)CC1 [compound 16] | 99 | –
56 | CC(C)n1ccc2cc(-c3cnc(N)nc3)nc(N[C@H]3CC[C@@H](O)C3)c2c1=O [compound 1031] | – | 7
57 | Cc1ccnc(Nc2cc3cc[nH]c(=O)c3c(N3CCOCC3)n2)c1 [compound 272] | 278 | –
58 | CC(C)(O)Cn1ccc2cc(Nc3cc(C(C)(C)O)ncn3)nc(NC3(C)CCC3)c2c1=O [compound 733] | – | 92
59 | Cc1ccnc(Nc2cc3ccn(CCO)c(=O)c3c(NC3(C)CCC3)n2)c1 [compound 599] | – | 286
60 | CN(C)Cc1n[nH]c2cc(Nc3nc(-c4cncc(C(=O)N5CCOCC5)c4)cc4cc[nH]c(=O)c34)ccc12 [compound 205] | 104 | –
61 | Cc1cc(Nc2nc(-c3cnc(N)c(C)c3)cc3cc[nH]c(=O)c23)ccc1C1CCN(CCC#N)CC1 [compound 69] | 28 | –
62 | Cc1ccnc(Nc2cc3ccn(CCO)c(=O)c3c(NC3CCS(=O)(=O)C3)n2)c1 (stereo not drawn) [compound 974] | – | 203
63 | CO/N=C(\C)c1cc2cc[nH]c(=O)c2c(Nc2ccc(C3CCNCC3)c(C)c2)n1 [compound 235] | 102 | –
64 | CN1CCN([C@H]2CC[C@H](c3ccc(Nc4nc(-c5cncnc5)cc5cc[nH]c(=O)c45)cc3)CC2)CC1 [compound 103] | 59 | –
65 | COCCNC(=O)C(C)N1CCC(c2ccc(Nc3nc(-c4cncc(OC)n4)cc4cc[nH]c(=O)c34)cc2C)CC1 (stereo not drawn) [compound 123] | 150 | –
66 | CC(C)(C)Nc1nc(-c2cnc(N)nc2)cc2ccn(CC3(CO)COC3)c(=O)c12 [compound 923] | – | 10
67 | CC1(O)CN(Cc2cc(Nc3cc4ccn(CCO)c(=O)c4c(NC(C)(C)C)n3)ncc2F)C1 [compound 610] | – | 370
68 | COCC(COC)n1ccc2cc(-c3cnc(N)nc3)nc(NC(C)(C)C)c2c1=O [compound 936] | – | 15
69 | C[C@@H](CO)Nc1nc(Nc2cnccn2)cc2ccn(CCN3CCOCC3)c(=O)c12 [compound 996] | – | 158
70 | CCN1CCN(CCc2ccc(Nc3nc(Nc4ccc(C)cn4)cc4cc[nH]c(=O)c34)cc2)CC1 [compound 563] | 430 | –
71 | CC(C)(C)Nc1nc(Nc2cc(C(C)(C)C)ccn2)cc2ccn(CCO)c(=O)c12 [compound 616] | – | 1350
72 | CCn1ccc2cc(Nc3nccc(O)n3)nc(N[C@@H]3CC[C@H](O)C3)c2c1=O [compound 958] | – | 22
73 | CC(=O)N1CCC(c2ccc(Nc3nc(Nc4cnccn4)cc4ccn(C)c(=O)c34)cc2)CC1 [compound 345] | 1220 | –
74 | CCn1ccc2cc(-c3cnc(N)nc3)nc(N[C@H]3CC[C@@H](CO)C3)c2c1=O [compound 913] | – | 5
75 | [2H]C([2H])([2H])n1ccc2cc(Nc3cnccn3)nc(NC3CC3)c2c1=O [compound 824] | – | 18
